“Also recorded” adds a separate entry of the source. Like-named read-outs stand apart in the source and are kept apart here.
Tests used:
hVHR = target: T1, hVHR (Homo sapiens, UniProt P51452); experiment: biochemical; settings: read-out: IC50 hVHR (Supplementary Table 1)
T1 construct: GST (N, cleaved yes); made in house; host or cells: E. coli

[1] = guinea pig, 50 or 100 mg/kg orally once daily for 7 days
M. tuberculosis H37Rv = experiment: Acute guinea pig model of TB infection; type: in vivo; settings: 28 days of treatment, oral daily, 13 100 mg/kg, RIF 50 mg/kg
[2] = test system: MDR strain (Beijing-W) in human macrophages (THP1); type: cell-based, M. tuberculosis
[3] = test system: M. tuberculosis H37Rv in human macrophages (THP1); type: cell-based
physchem = type: physicochemical; settings: pH 7.4
Description: Experimental Methods (ADME determinations).
ADME determinations for Compound 13 (data kindly supplied by LifeArc).
LogD measurements were carried out using the shake flask method. Compound was diluted from a 10 mM DMSO stock solution into an eppendorf containing equal amounts of octanol and phosphate buffered saline (PBS) to give a final concentration of 100 µM. The tubes were shaken for 12 hours, centrifuged at 10000 rpm for 10 minutes and samples taken from the octanol and PBS layers. The samples from both layers were analysed in triplicate by LC-MS/MS (Aglient Technologies G6410 series, triple quadrupole with MM-ESI ion source) using optimised multiple reaction monitoring (MRM) scans and a standard column gradient on an Acquity UPLC BEH C8 1.7 µm column, running acetonitrile and water with 0.05% acetic acid as the mobile phase. The ratios of areas of the peaks were used to calculate the Log D in accordance with the equation:
Log D = Log10(Area-TL/Area BL)
PBS pH7.4 in a filtration plate at a target concentration of 200 µM giving a final solution composition of 98:2 PBS:DMSO. […] The UV absorbance for these solutions was read across 230-400 nM at 1 nM intervals using a T ECAN Safire II plate reader and a suitable UV wavelength chosen around the UV maximum of each compound. […]

[4] = test system: PI3P on M. tuberculosis phagosomes (RAW264.7 macrophages); type: cell-based
BCG = type: cell-based, Mycobacterium bovis Bacille Calmette-Guerin
M. tuberculosis = type: in vivo, guinea pig
[5] = test system: BCG in mouse macrophages (J774); type: cell-based, Mycobacterium bovis Bacille Calmette-Guerin
[6] = Pharmacokinetic evaluation in guinea pigs; type: in vivo; settings: male, Durkin Hartley, guinea pig, in vivo
Description: Guinea pig males (Durkin Hartley) were used to evaluate the pharmacokinetics and tissue distribution of compounds. The route of administration was either intraperitoneal (ip) or oral (po) with dosage varying from 3.5 to 8 mg kg^–1 (op) and 2.5–4 mg kg^–1 (ip). In each case 4 samples were collected per time point at 0.1, 0.5, 2, 4, and 8 h post dose for ip and 0.25, 0.5, 2, 4, and 8 h post dose for po. Compounds were prepared in 10% DMSO, 5% Cremaphor, and 85% physiological saline for IP administration or 0.5% (v/v) Tween 80, 99.5% (v/v) 0.5% methylcellulose for oral administration. Tissue samples (n = 4) from lung, liver, and kidney were collected at the end of the study and snap frozen prior to bioanalysis.

hPTP1B = target: T2, hPTP1B (Homo sapiens, UniProt P18031); experiment: biochemical; settings: read-out: IC50 hPTP1B (Supplementary Table 1)
T2 construct: GST (N, cleaved yes); made in house; host or cells: E. coli

[7] = chronic model, 28 days of treatment from day 28, oral daily, 13 100 mg/kg, RIF 50 mg/kg
[8] = chronic model, 28 days of treatment from day 28, oral daily, 13 100 mg/kg, RIF 50 mg/kg, listed as Cpd 13

T1 sequence (P51452 whole entry): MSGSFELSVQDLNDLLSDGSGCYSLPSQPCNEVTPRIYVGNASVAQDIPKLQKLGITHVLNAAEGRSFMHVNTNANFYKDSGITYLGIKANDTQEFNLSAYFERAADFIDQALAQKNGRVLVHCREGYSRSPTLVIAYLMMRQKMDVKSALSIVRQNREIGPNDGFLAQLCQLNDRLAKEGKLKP
T2 sequence (P18031 whole entry): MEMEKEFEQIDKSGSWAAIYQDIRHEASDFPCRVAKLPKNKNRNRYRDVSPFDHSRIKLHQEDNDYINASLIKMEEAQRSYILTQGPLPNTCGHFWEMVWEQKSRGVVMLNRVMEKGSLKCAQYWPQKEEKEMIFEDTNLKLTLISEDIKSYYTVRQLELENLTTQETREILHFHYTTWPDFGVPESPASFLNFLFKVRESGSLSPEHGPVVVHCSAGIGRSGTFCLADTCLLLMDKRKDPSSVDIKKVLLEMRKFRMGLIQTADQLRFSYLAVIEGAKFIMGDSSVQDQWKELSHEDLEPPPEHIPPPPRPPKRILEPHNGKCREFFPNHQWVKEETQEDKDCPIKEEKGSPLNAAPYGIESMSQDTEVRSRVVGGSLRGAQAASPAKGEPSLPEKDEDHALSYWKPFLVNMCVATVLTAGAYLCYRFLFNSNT

SMILES: Cc1onc(C(=O)O)c1-c1cccc(-c2cc(Cl)c(O)c(Cl)c2)c1 [Compound 13, 4-(3′,5′-Dichloro-4′-hydroxy-3-biphenyl)-5-methylisoxazole-3-carboxylic Acid]
- IC50 (hVHR): > 100 µM
- adverse drug effects (tolerability) [1]: no adverse drug effects
- weight increases during the tolerability trial [1]: > 5%
- Lungs infection burden, average (M. tuberculosis H37Rv): 5.9 log CFU
- Lungs log reduction relative to vehicle (M. tuberculosis H37Rv): 0.9 log
- Spleen infection burden, average (M. tuberculosis H37Rv): 5.6 log CFU
- Spleen log reduction relative to vehicle (M. tuberculosis H37Rv): 0 log
- reduction of intracellular mycobacterial burden, MDR strain (Beijing-W) [2]: up to 74%
- reduction of intracellular mycobacterial burden, H37Rv [3]: up to 63%
- logD (physchem): 4
- duration of the peak of PI3P on phagosomes [4]: up to 12 min
- effect on extracellular growth of BCG (BCG): does not affect extracellular bacterial growth; also recorded: not affected
- Lungs infection burden, average (M. tuberculosis; [7]): 4.7 log CFU
- Lungs log reduction relative to vehicle (M. tuberculosis; [7]): at least 1 log
- Spleen infection burden, average (M. tuberculosis; [7]): 4.2 log CFU
- Spleen log reduction relative to vehicle (M. tuberculosis; [7]): at least 1 log
- Lungs log reduction relative to vehicle (M. tuberculosis; [8]): 1.0 log
- Spleen log reduction relative to vehicle (M. tuberculosis; [8]): 1.0 log
- Lungs weight % change relative to Vehicle (M. tuberculosis; guinea pig, in vivo): -19%
- Lungs weight, average (M. tuberculosis; guinea pig, in vivo): 4.4 g
- Spleen weight % change relative to Vehicle (M. tuberculosis; guinea pig, in vivo): -19%
- Spleen weight, average (M. tuberculosis; guinea pig, in vivo): 2.1 g
- histopathology of lungs and spleens (M. tuberculosis; guinea pig, in vivo, 100 mg/kg): improvement in the pathology
- reduction in intracellular mycobacterial (BCG) burden [5]: up to 84%
- half-life ([6]; ip, 4 mg/kg, IP, dose mg/kg: 13 4, 5 2.5, 8 1.25, 9 2.5): 1.4 h
- half-life ([6]; po, 8 mg/kg, oral, dose mg/kg: 13 8, 5 5, 8 3.5, 9 5): 5 h
- IC50 (hPTP1B): > 100 µM

— paper PMC6459586, “Structure-Based Design of MptpB Inhibitors That Reduce Multidrug-Resistant Mycobacterium tuberculosis Survival and Infection Burden in Vivo” (Journal of Medicinal Chemistry, 2018)
